Data taken from PMC5458179, “Oxidative DNA double strand breaks and autophagy in the antitumor effect of sterically hindered platinum(II) complexes in NSCLCs” (Oncotarget, 2017).

Tests used:
pET28a plasmid DNA = test: Agarose gel electrophoresis of plasmid DNA; conditions: 0, 20, 80, 320, 640 μM
Procedure: The tested complexes were incubated with DNA at different concentrations.
Appropriate dilutions of tested complexes were made, and the required volumes of solutions were added to achieve a set of concentrations in the range of 0–100 mm; pET22b DNA (5 mL, 0.20 mg) was added to each tube, and the mixtures of platinum complexes and pET22b plasmid DNA were then incubated at 37°C for 6 or 24 h. Afterward, the agarose gel (made up to 1% w/v) containing ethidium bromide was prepared with TA buffer (50 mm Tris-acetate, pH 7.5). The mixtures with loading buffer (1 mL) underwent electrophores is in agarose gel in TA buffer at 100 V for 60 min. Bands were imaged using a Molecular Imager (Bio-Rad, USA) under UV light.

Herring sperm DNA = test: DNA platination by EtBr fluorescence; conditions: 0.01 mg/mL DNA, pH 7.4, 37°C, 24 h
Procedure: The better cytotoxicity of complex 3 owing to the DNA platination could be detected in the presence of EtBr as a probe via fluorescent measurements, because their DNA platination could prevent the formation of EtBr-DNA complex, resulting in its stoichiometric loss of fluorescence.
Herring sperm DNA was dissolved in 10 mM phosphate buffer (pH 7.4) containing 10 mM NaClO4. The DNA concentration was determined by UV-vis spectra at 260 nm with an extinction coefficient of 6600 M^−1. The mixture of DNA with platinum complexes were incubated at 37°C in the dark. The fluorescence was measured in 0.4 M NaCl to avoid the second fixation site of EtBr to DNA. EtBr (0.04 mg/mL) was added to the 0.01 mg/mL DNA solution before the fluorescence measurement. Fluorescence spectra were recorded under following conditions: scan speed 2000 nm min^−1; excitation slit width was 5 nm and emission slit width was 10 nm. The excitation and emission wavelength was 530 nm and 592 nm, respectively.

[1] = tested on: L02 normal liver cell line; test: MTT cytotoxicity assay; assay type: cell-based; conditions: 48 h drug exposure
Procedure: (§1) The results reveal that the steric hindrance plays a significant role in the cytotoxicity of complex 3.
(§2) Human cancer cell lines HepG2, SGC-7901, HCT-116, A549, NCI-H1299 and MCF-7 as well as normal liver cell line L02 were purchased from the Cell Bank of Shanghai Institute of Cell Biology. Among them, MCF-7, HepG2 cells were cultured at 37 °C in 5% CO2 with DMEM supplemented with 10% fetal bovine serum (FBS) (Hyclone, Lifescience, USA) and 1% penicillin/streptomycin (Beyotime, Nantong, China), while HCT-116, SGC-7901, A549, NCI-H1299 and L02 cells were cultured at 37 °C in 5% CO2 with RPMI-1640 supplemented with 10% FBS and 1% penicillin/streptomycin. Cells were passed every 2 days and restarted from frozen stocks upon reaching pass number 20.
(§3) In vitro cytotoxicity of the platinum compounds against human hepatocellular carcinoma (HepG-2), gastric carcinoma (SGC-7901), non-small-cell lung cancer (A549), and colorectal cancer (HCT-116) cell lines were measured by the MTT assays. Briefly, the cells were seeded in 96-well cultured plates at a density of 5000 cells/well. After overnight incubation (16 h), the cells were treated with the platinum complexes. After 48 h of incubation, 10 μL of a freshly diluted 3-(4,5-dimethyl-2-thiazolyl)-2,5-diphenyl-2H-tetrazolium bromide (MTT) solution (5 mg/mL) were added to each well and the plates were incubated at 37 °C in a humidified 5% CO2 atmosphere for 4 h. At the end of the incubation period the medium was removed and the formazan product was dissolved in 150 μL of DMSO. The cell viability was evaluated by measurement of the absorbance at 490 nm, using an Absorbance Reader (BioRad). IC50 values (compound concentration that produces 50% of cell growth inhibition) were calculated from curves constructed by plotting cell survival inhibitory rate (%) versus drug concentration logarithm. All experiments were repeated in three times. The reading values were converted to the percentage of control (% cell survival). Cytotoxic effects were expressed as IC50 values.

[2] = Blood stability test with rat plasma (ICP-MS); assay type: in vitro ADME; conditions: 37°C, 10 μM (method: 50 μM)
Procedure: Thus, we investigated the stability of complex 3 in rat plasma via ICP-MS measurement. Fresh rat plasma was added with a DMSO solution of complex 3 (10 μM). After incubation for 0, 2, 4 and 8 h at 37°C, the Pt content in rat plasma was measured by ICP-MS. […] This interaction contributes to the promising stability of complex 3 in rat plasma.
At varying time points (0, 2, 4 and 8 h) at 37°C, a 300 μL aliquot was removed from the incubating blood. The ICP-MS measurement was served to confirm the blood stability of complex 3 in rat plasma.

NCI-H1299 cells [3] = test: Cell-cycle analysis (PI staining, flow cytometry); assay type: cell-based, human; conditions: NCI-H1299, 10 μM
Procedure: (§4) With the untreated A549 and NCI-H1299 cells, the percentage of cells in the G1 phase was at 21.29%, 18.96% with 15.28%, 22.94% in the G2/M phase, respectively.
(§5) Cell cycle was analyzed by flow cytometry as described previously. Data were analyzed with FlowJo software (TreeStar, Inc.).

A549 cells [4] = test: Cell-cycle analysis (PI staining, flow cytometry); assay type: cell-based, human; conditions: A549, 10 μM
Procedure: as §4, §5

SGC-7901 = test: MTT cytotoxicity assay; assay type: cell-based, human; conditions: 48 h drug exposure
Procedure: as §1, §2, §3

HCT-116 = test: MTT cytotoxicity assay; assay type: cell-based, human; conditions: 48 h drug exposure
Procedure: as §1, §2, §3

HepG2 = test: MTT cytotoxicity assay; assay type: cell-based, human; conditions: 48 h drug exposure
Procedure: as §1, §2, §3

NCI-H1299 cells [5] = test: Subcellular distribution of Pt (mitochondria, lysosomes, nucleus, residual); conditions: NCI-H1299, 10 μM, 4 h, ICP-MS
Excerpt: (§6) One of the main factors to determine the mechanism of cytotoxic activity of a metal-based drug is its ability to cross the cell membrane and to accumulate in cancer cells. Therefore, with the aim of correlating cellular accumulation, we investigated the cellular uptake of the platinum complexes in A549, NCI-H1299 cancer cells and L02 normal cell. […] Moreover, the amount of Pt in the different subcellular compartments of cancer cells was quantified to fetch a more detailed picture of Pt-based complexes intracellular localization (Figure 1C).
(§7) The cells were seeded in 6-well plates overnight and then incubated with 10 μM drugs at 37°C in standard culture conditions. After 4 h, the cells were washed with PBS buffer (pH 7.4) for three times, and harvested by trypsinization. […] The organelles were then isolated via differential centrifugation. All cellular compartments (mitochondria, lysosomes and nucleus) were isolated from A549 and NCI-H1299 cancer cells for direct comparative purposes. The supernatant phases discarded during the isolation of nuclei, lysosomes and mitochondria procedures were collected and formed the “residual” fraction. An aliquot of crude lysate after homogenization, nuclear, mitochondrial (pellet lysed via freeze and thaw cycles followed by 20 min incubation in ultrasonic bath), lysosomal and residual fraction was each used for protein quantification using the Bradford method. The harvested cells were concentrated and digested by nitric acid for the ICP measurement. The cell numbers were counted before the digested. For the measurement of Pt concentration in cellular DNA in A549, NCI-H1299 cancer cells, DNA was isolated by applying Genomic DNA Mini Preparation Kit (Beyotime, China), and Pt content in DNA was analyzed by ICP.

A549 cells [6] = test: as above; conditions: A549, 10 μM, 4 h, ICP-MS
Excerpt: as §6, §7

SMILES	gel electrophoretic mobility of plasmid DNA (pET28a plasmid DNA)	DNA platination, change of EtBr fluorescent intensity (Herring sperm DNA)	IC50 [1]	t1/2 in rat plasma (stability) [2]	cell cycle phase blocked (NCI-H1299 cells [3])	percentage of cells in the G1 phase (NCI-H1299 cells [3]; 72 h, untreated 18.96%)	cell cycle phase blocked (A549 cells [4])	IC50 (SGC-7901)	IC50 (HCT-116)	IC50 (HepG2)	share of intracellular Pt, nucleus (NCI-H1299 cells [5])	share of intracellular Pt, nucleus (A549 cells [6])
CC(C)C[NH+]1[C@@H]2CCCC[C@H]2[NH+](CC(C)C)[Pt-2]12[O]C(=O)CC(=O)[O]2 (some centres unmarked) [Complex 3]	a strong unwinding of the supercoiled DNA	more fluorescent intensity change compared to complex 3a	82.6 ± 3.95 µM	27.6 h	G2/M phases of A549 and NCI-H1299 were blocked strikingly	60.29%	G2/M phases of A549 and NCI-H1299 were blocked strikingly	38.6 ± 2.49 µM	38.6 ± 2.67 µM	52.9 ± 4.37 µM	72%	79%
O=C1[O][Pt]2([NH][C@@H]3CCCC[C@H]3[NH]2)[O]C1=O [Oxaliplatin, oxaliplatin, reference compound]	a decrease in the rate of migration for closed circular DNA (Form I)	a little loss of fluorescent intensity	42.9 ± 3.54 µM	~ 13.1 h	S phases were blocked	–	S phases were blocked	24.2 ± 0.35 µM	19.1 ± 1.89 µM	16.6 ± 0.56 µM	57%	63%
